# Tested on: subjects with tinnitus caused by acute hearing loss, stress and other reasons
# Assay: Two double-blind, randomized, placebo-controlled 17-week studies of neramexane mesylate in tinnitus; change in TBF-12 total score
# Assay type: in vivo, human
# Conditions: FAS-LOCF; for Change in the TBF-12 total score from baseline to Week 17/EOT, mean (SD): neramexane mesylate 50 or 75 mg/d, 17 weeks; for LSmean [ner − plac], estimated difference Neramexane − Placebo in change of TBF-12 total score, adjusted for covariates from ANCOVA: Week 17/EOT, negative = superior to placebo
# Procedure: The objective was to assess the efficacy of neramexane as a treatment for tinnitus. The primary objectives of these two independent 17 weeks double-blind, randomized placebo-controlled studies were to compare the efficacy, tolerability and safety of neramexane mesylate at two different, weight-adapted dosages (50 or 75 mg/d) with placebo in subjects with tinnitus caused acute hearing loss, stress and other reasons.
# In two independent, double-blind, multicenter, randomized, placebo-controlled, parallel-group studies, the efficacy of neramexane in subjects suffering from tinnitus caused by acute hearing loss, stress and other reasons were assessed.
# In both studies, subjects were treated for 17 weeks with neramexane or placebo including a four-resp. five-week up-titration period, depending on study drug dose.
# Patients with a target daily dose of 50 mg neramexane mesylate (<90 kg body weight) were to reach steady state after four weeks, patients with a target total daily dose of 75 mg neramexane mesylate 90 kg body weight) were to reach steady state after five weeks of treatment. For patients who experienced dose limiting adverse events with the 75 mg dose, the dosage was reduced by switching the patient to 50 mg/day. Patients unable to tolerate a minimum dosage of 50 mg/day discontinued.
# Patients' eligibility for the studies was evaluated via a check of inclusion/exclusion criteria. The subject completed a Tinnitus-Beeinträchtigungs-Fragebogen (TBF-12=Tinnitus Handicap Inventory (THI-12)) (i.e., a 12-item modified and validated version (Greimel K V et al., Tinnitus-Beeinträchtigungs-Fragebogen (TBF-12). Manual. Frankfurt am Main: Swets & Zeitlinger B.V.; 2000) of the 25-item Tinnitus Handicap Inventory or THI (Newman C W, et al. Development of the Tinnitus Handicap Inventory. Arch Otolaryngol Head Neck Surg 1996; 122(2): 143-148; Newman C W, et al. Psychometric adequacy of the Tinnitus Handicap Inventory (THI) for evaluating treatment outcome. J Am Acad Audiol 1998; 9(2): 153-160.)). The TBF-12 items can be grouped in 2 factorial scores: an emotional-cognitive and a functional-communicational factor. At Visit 1 patients also completed a Tinnitus Rating Scale (TRS, Likert scores on Tinnitus Loudness, Tinnitus Impact on Life, and Tinnitus Annoyance), and the Hospital Anxiety and Depression Scale Audiology/psychoacoustic measurements were performed unless results from previous examinations performed no more than one year prior to Screening were available.
# Neramexane mesylate immediate release tablets (12.5 mg and 25 mg, the manufacture thereof being disclosed in WO 2009/033649, whose respective content is incorporated herein by reference) and matching placebo tablets are administered as film coated tablets.
# Primary Outcome • The change in TBF-12 total score from baseline (Visit 2) to the endpoint visit (Visit 7, i.e. Week 17 or end of treatment) was the primary efficacy endpoint in these studies.
# All efficacy analyses were performed on the full analysis set (FAS) using the last-observation-carried-forward (LOCF) approach. For sensitivity purposes an analysis of the per-protocol set and of observed cases was performed additionally. All statistical tests used for testing the primary efficacy (confirmatory testing) and secondary efficacy criteria (exploratory), and all other statistical tests used for exploratory analyses were two-sided hypothesis tests performed at the 5% significance level. For all variables standard descriptive statistics were calculated.
# Change from baseline (Visit 2) to Week 17 in TBF-12 total score was analyzed using an ANCOVA model with treatment group, gender and country as factors and baseline TBF-12 total score as covariate.
smiles,measurement,setting,value
"CC1(C)CC(C)(C)CC(C)(N)C1 [Neramexane, 1-amino-1,3,3,5,5-pentamethylcyclohexane]","Change in the TBF-12 total score from baseline to Week 17/EOT, mean (SD)","tinnitus caused by acute hearing loss, N=34",34/−3.1 ± 5.0
same,"LSmean [ner − plac], estimated difference Neramexane − Placebo in change of TBF-12 total score, adjusted for covariates from ANCOVA","tinnitus caused by acute hearing loss, P-value 0.0162",−3.9
same,"Change in the TBF-12 total score from baseline to Week 17/EOT, mean (SD)","tinnitus caused by other reasons, N=323",323/−2.4 ± 4.1
same,"LSmean [ner − plac], estimated difference Neramexane − Placebo in change of TBF-12 total score, adjusted for covariates from ANCOVA","tinnitus caused by other reasons, P-value 0.5969",0.2
same,"Change in the TBF-12 total score from baseline to Week 17/EOT, mean (SD)","tinnitus caused by stress, N=41",41/−3.4 ± 4.2
same,"LSmean [ner − plac], estimated difference Neramexane − Placebo in change of TBF-12 total score, adjusted for covariates from ANCOVA","tinnitus caused by stress, P-value 0.0094",−2.3

# — patent publication US20130296427A1, “NERAMEXANE FOR THE TREATMENT OR PREVENTION OF TINNITUS RELATED WITH STRESS OR ACUTE HEARING LOSS” (MERZ PHARMA GmbH & CO. KGaA, priority 2011, published 2013)
